Patent US7754880B2, “Uracils having a herbicidal activity” (Isagro Ricerca S.r.l., priority 2002, dated 2010)

Row | Structure (SMILES) | melting point [°C]
1 | Cn1nnnc1-c1cc(-n2c(=O)cc(C(F)(F)F)n(C)c2=O)ccc1Cl [Compound No 14, 3-[4-chloro-3-(1-methyl-1H-tetrazol-5-yl)phenyl]-1-methyl-6-(trifluoromethyl)-2,4(1H,3H)-pyrimidinedione] | 185
2 | CCn1nnc(-c2cc(-n3c(=O)cc(C(F)(F)F)n(C)c3=O)ccc2Cl)n1 [Compound No 15, 3-[4-chloro-3-(2-ethyl-2H-tetrazol-5-yl)phenyl]-1-methyl-6-(trifluoromethyl)-2,4(1H,3H)-pyrimidinedione] | 136
3 | CCn1nnnc1-c1cc(-n2c(=O)cc(C(F)(F)F)n(C)c2=O)ccc1Cl [Compound No 16, 3-[4-chloro-3-(1-ethyl-1H-tetrazol-5-yl)phenyl]-1-methyl-6-(trifluoromethyl)-2,4(1H,3H)-pyrimidinedione] | 202
4 | COC(=O)Cn1nnc(-c2cc(-n3c(=O)cc(C(F)(F)F)n(C)c3=O)ccc2Cl)n1 [Compound No 17, methyl (5-{2-chloro-5-[1,2,3,6-tetrahydro-3-methyl-2,6-dioxo-4-(trifluoromethyl)pyrimidin-1-yl]phenyl}-2H-tetrazol-2-yl)acetate] | 172
5 | COC(=O)Cn1nnnc1-c1cc(-n2c(=O)cc(C(F)(F)F)n(C)c2=O)ccc1Cl [Compound No 18, methyl (5-{2-chloro-5-[1,2,3,6-tetrahydro-3-methyl-2,6-dioxo-4-(trifluoromethyl)pyrimidin-1-yl]phenyl}-1H-tetrazol-1-yl)acetate] | 130
6 | COCn1nnc(-c2cc(-n3c(=O)cc(C(F)(F)F)n(C)c3=O)ccc2Cl)n1 [Compound No 101, 3-{4-chloro-3-[2-(methoxymethyl)-2H-tetrazol-5-yl]phenyl}-1-methyl-6-(trifluoromethyl)-2,4(1H,3H)-pyrimidinedione] | 80
7 | COCn1nnnc1-c1cc(-n2c(=O)cc(C(F)(F)F)n(C)c2=O)ccc1Cl [Compound No 102, 3-{4-chloro-3-[1-(methoxymethyl)-1H-tetrazol-5-yl]phenyl}-1-methyl-6-(trifluoromethyl)-2,4(1H,3H)-pyrimidinedione] | 182
8 | CCOCn1nnc(-c2cc(-n3c(=O)cc(C(F)(F)F)n(C)c3=O)ccc2Cl)n1 [Compound No 103, 3-{4-chloro-3-[2-(ethoxymethyl)-2H-tetrazol-5-yl]phenyl}-1-methyl-6-(trifluoromethyl)-2,4(1H,3H)-pyrimidinedione] | 140
9 | CCOCn1nnnc1-c1cc(-n2c(=O)cc(C(F)(F)F)n(C)c2=O)ccc1Cl [Compound No 104, 3-{4-chloro-3-[1-(ethoxymethyl)-1H-tetrazol-5-yl]phenyl}-1-methyl-6-(trifluoromethyl)-2,4(1H,3H)-pyrimidinedione] | 157
10 | C=CCn1nnc(-c2cc(-n3c(=O)cc(C(F)(F)F)n(C)c3=O)ccc2Cl)n1 [Compound No 105, 3-[3-(2-allyl-2H-tetrazol-5-yl)-4-chlorophenyl]-1-methyl-6-(trifluoromethyl)-2,4(1H,3H)-pyrimidinedione] | 116
11 | C=CCn1nnnc1-c1cc(-n2c(=O)cc(C(F)(F)F)n(C)c2=O)ccc1Cl [Compound No 106, 3-[3-(1-allyl-1H-tetrazol-5-yl)-4-chlorophenyl]-1-methyl-6-(trifluoromethyl)-2,4(1H,3H)-pyrimidinedione] | 160
12 | Cn1c(C(F)(F)F)cc(=O)n(-c2ccc(Cl)c(-c3nc4ccccc4s3)c2)c1=O [Compound No 113, 3-[3-(1,3-benzothiazol-2-yl)-4-chlorophenyl]-1-methyl-6-(trifluoromethyl)-2,4(1H,3H)-pyrimidinedione] | 189
13 | Cn1c(C(F)(F)F)cc(=O)n(-c2ccc(Cl)c(-c3nc4ccccc4o3)c2)c1=O [Compound No 114, 3-[3-(1,3-benzoxazol-2-yl)-4-chlorophenyl]-1-methyl-6-(trifluoromethyl)-2,4(1H,3H)-pyrimidinedione] | 183
14 | Cn1c(C(F)(F)F)cc(=O)n(-c2ccc(Cl)c(-c3nnn(C(C)(C)C)n3)c2)c1=O [Compound No 118, 3-[3-(2-tert-butyl-2H-tetrazol-5-yl)-4-chlorophenyl]-1-methyl-6-(trifluoromethyl)-2,4(1H,3H)-pyrimidinedione] | 154
15 | Cn1c(C(F)(F)F)cc(=O)n(-c2cc(-c3nc4ccccc4o3)c(Cl)cc2F)c1=O [Compound No 122, 3-[5-(1,3-benzoxazol-2-yl)-4-chloro-2-fluorophenyl]-1-methyl-6-(trifluoromethyl)-2,4(1H,3H)-pyrimidinedione] | 178

Continued, values first:

Row | melting point [°C] | Structure (SMILES)
16 | 116 | COC(=O)/C=C(\COc1cc(-n2c(=O)cc(C(F)(F)F)n(C)c2=O)c(Cl)cc1Cl)OC [Compound No 3, methyl (2E)-4-{2,4-dichloro-5-[1,2,3,6-tetrahydro-3-methyl-2,6-dioxo-4-(trifluoromethyl)pyrimidin-1-yl]phenoxy}-3-methoxybut-2-enoate]
17 | 82 | Cn1c(C(F)(F)F)cc(=O)n(-c2cc(OCc3nnn[nH]3)c(Cl)cc2F)c1=O [Compound No 7, 3-[4-chloro-2-fluoro-5-(tetrazol-5-ylmethoxy)phenyl]-1-methyl-6-(trifluoromethyl)-2,4(1H,3H)-pyrimidinedione]
18 | 126 | CCn1nnc(COc2cc(-n3c(=O)cc(C(F)(F)F)n(C)c3=O)c(F)cc2Cl)n1 [Compound No 8, 3-{4-chloro-2-fluoro-5-[(2-ethyl-2H-tetrazol-5-yl)methoxy]phenyl}-1-methyl-6-(trifluoromethyl)-2,4(1H,3H)-pyrimidinedione]
19 | 60 | CCn1nnnc1COc1cc(-n2c(=O)cc(C(F)(F)F)n(C)c2=O)c(F)cc1Cl [Compound No 9, 3-{4-chloro-2-fluoro-5-[(1-ethyl-1H-tetrazol-5-yl)methoxy]phenyl}-1-methyl-6-(trifluoromethyl)-2,4(1H,3H)-pyrimidinedione]
20 | 243 | COC(=O)Cn1nnnc1COc1cc(-n2c(=O)cc(C(F)(F)F)n(C)c2=O)c(F)cc1Cl [Compound No 10, methyl [5-({2-chloro-4-fluoro-5-[1,2,3,6-tetrahydro-3-methyl-2,6-dioxo-4-(trifluoromethyl)pyrimidin-1-yl]phenoxy}methyl)-1H-tetrazol-1-yl]acetate]
21 | 65 | COC(=O)Cn1nnc(COc2cc(-n3c(=O)cc(C(F)(F)F)n(C)c3=O)c(F)cc2Cl)n1 [Compound No 11, methyl [5-({2-chloro-4-fluoro-5-[1,2,3,6-tetrahydro-3-methyl-2,6-dioxo-4-(trifluoromethyl)pyrimidin-1-yl]phenoxy}methyl)-2H-tetrazol-2-yl]acetate]
22 | 167 | Cn1nnc(COc2cc(-n3c(=O)cc(C(F)(F)F)n(C)c3=O)c(F)cc2Cl)n1 [Compound No 42, 3-{4-chloro-2-fluoro-5-[(2-methyl-2H-tetrazol-5-yl)methoxy]phenyl}-1-methyl-6-(trifluoromethyl)-2,4(1H,3H)-pyrimidinedione]
23 | 90 | Cn1c(C(F)(F)F)cc(=O)n(-c2cc(Oc3nnc(C(F)(F)F)s3)c(Cl)cc2Cl)c1=O [Compound No 84, 3-(2,4-dichloro-5-{[5-(trifluoromethyl)-1,3,4-thiadiazol-2-yl]oxy}phenyl)-1-methyl-6-(trifluoromethyl)-2,4(1H,3H)-pyrimidinedione]
24 | 128 | CCOC(=O)/C=C(\COc1cc(-n2c(=O)cc(C(F)(F)F)n(C)c2=O)c(Cl)cc1Cl)OC [Compound No 99, ethyl (2E)-4-{2,4-dichloro-5-[1,2,3,6-tetrahydro-3-methyl-2,6-dioxo-4-(trifluoromethyl)pyrimidin-1-yl]phenoxy}-3-methoxybut-2-enoate]
25 | 78 | CCOC(=O)/C=C(\COc1cc(-n2c(=O)cc(C(F)(F)F)n(C)c2=O)c(F)cc1Cl)OC [Compound No 100, ethyl (2E)-4-{2-chloro-4-fluoro-5-[1,2,3,6-tetrahydro-3-methyl-2,6-dioxo-4-(trifluoromethyl)pyrimidin-1-yl]phenoxy}-3-methoxybut-2-enoate]
26 | 154 | Cc1cc(COc2cc(-n3c(=O)cc(C(F)(F)F)n(C)c3=O)c(F)cc2Cl)on1 [Compound No 107, 3-{4-chloro-2-fluoro-5-[(3-methylisoxazol-5-yl)methoxy]phenyl}-1-methyl-6-(trifluoromethyl)-2,4(1H,3H)-pyrimidinedione]
27 | 185 | Cc1cc(COc2cc(-n3c(=O)cc(C(F)(F)F)n(C)c3=O)c(Cl)cc2Cl)on1 [Compound No 108, 3-{2,4-dichloro-5-[(3-methylisoxazol-5-yl)methoxy]phenyl}-1-methyl-6-(trifluoromethyl)-2,4(1H,3H)-pyrimidinedione]
28 | 167 | Cc1nc(COc2cc(-n3c(=O)cc(C(F)(F)F)n(C)c3=O)c(Cl)cc2Cl)no1 [Compound No 112, 3-{2,4-dichloro-5-[(5-methyl-1,2,4-oxadiazol-3-yl)methoxy]phenyl}-1-methyl-6-(trifluoromethyl)-2,4(1H,3H)-pyrimidinedione]
29 | 122 | Cn1c(C(F)(F)F)cc(=O)n(-c2cc(OCc3ncon3)c(Cl)cc2F)c1=O [Compound No 117, 3-[4-chloro-2-fluoro-5-(1,2,4-oxadiazol-3-ylmethoxy)phenyl]-1-methyl-6-(trifluoromethyl)-2,4(1H,3H)-pyrimidinedione]
30 | 211 | Cn1c(C(F)(F)F)cc(=O)n(-c2cc(-c3nc4ccccc4s3)c(Cl)cc2F)c1=O [Compound No 119, 3-[5-(1,3-benzothiazol-2-yl)-4-chloro-2-fluorophenyl]-1-methyl-6-(trifluoromethyl)-2,4(1H,3H)-pyrimidinedione]
31 | 195 | Cn1c(C(F)(F)F)cc(=O)n(-c2cc(-c3nc4ccccc4s3)c(Cl)cc2Cl)c1=O [Compound No 123, 3-[5-(1,3-benzothiazol-2-yl)-2,4-dichlorophenyl]-1-methyl-6-(trifluoromethyl)-2,4(1H,3H)-pyrimidinedione]
32 | 200 | Cc1ccc2nc(-c3cc(-n4c(=O)cc(C(F)(F)F)n(C)c4=O)c(Cl)cc3Cl)oc2c1 [Compound No 124, 3-[2,4-dichloro-5-(6-methyl-1,3-benzoxazol-2-yl)phenyl]-1-methyl-6-(trifluoromethyl) 2,4(1H,3H)-pyrimidinedione]
